Results as given in patent US20080248094A1 (NATIONAL RESEARCH COUNCIL OF CANADA, priority 2001, published 2008).
Where “and” joins values, the source holds several entries; their conditions need not be identical. Equal entries are not always repeated.

What was measured:
OVA = tested on: OVA; design: species or system C57BL/6 mice; conditions: mouse, in vivo
[1] = tested on: IL-12 secretion from dendritic cells; format: cell-based, C57BL/6 mice
[2] = tested on: bone marrow dendritic cells; format: cell-based, C57BL/6 mice

For “OVA, no adjuvant: 15 μg ovalbumin (OVA) with no adjuvant”, the “anti OVA antibody titres” value (OVA) was less than 42.

With lipopolysaccharide [LPS] the IL-12 [1] was 187.9 ng/mL and 182.7 ng/mL and the “MTT (Absorbance)” value [2] was 0.564 Absorbance and 0.562 Absorbance.
